# Experimental data taken from patent US20230357099A1, “PYRAZOLO [3,4-B] PYRIDINE-4-CARBOXAMIDE NITRIFICATION INHIBITOR” (EUROCHEM ANTWERPTEN, priority 2020, published 2023).
# Legend:
# agricultural soils = assay: In soil nitrification inhibition assay; settings: soil; for inhibition at 50 µM: 50 µM of each compound
# Experimental: Top layer (0 to 10 cm) soil samples were collected from different fields in Belgium (Merelbeke, Sint-Laureins and Moorslede). Vegetation was removed and samples were taken from different plots. All soil samples were mixed and sieved (mesh size 2.8 mm) to filter large debris and homogenize soil. The soil was stored at 5° C. in plastic containers covered with Saran foil to prevent changes in microbial community composition and to maintain the original soil water content.
# Soil water content was determined by drying 20 g soil for ≥ 48 h in a 60° C. oven and measuring weight before and after drying. Based on the soil water content (± 20%), compound solutions were prepared so that addition of 200 µl compound and 200 µl NH4Cl solution would result in a final compound concentration of 50 µM (unless otherwise stated) and a final NH4+ concentration of 10 mM. Per treatment, 5 small pots were filled with 20 g soil. Next, the soil was treated first with the respective compound solution and then with the NH4Cl solution. Per tray, positive (50 µM DMP) and negative controls (DMSO) were included. […] Demineralized water was added to the soil every 2 to 3 days to a soil weight of 20 g. In the end, each sample of 20 g soil was dissolved in 100 ml 1 M KCI and shaken for 1 hour, followed by filtration through Whatmann® paper. The filtrate was used to measure pH, NH4+ and NO3— concentrations. The nitrification percentage was calculated as the ratio of the consumed ammonium in treated soil versus the consumed ammonium in non-treated soil; the nitrification inhibition percentage was calculated as ‘100% - the nitrification percentage’.
# [1] = system: ammonia oxidizing archaea; assay: Abundance of ammonia oxidizing archaea in DMP-treated soil
# [2] = system: agricultural soils (Moorslede and Sint-Laureins); assay: Greenhouse gas measurements from fertilized soil
# Experimental: Two agricultural soils coming from fields in Moorslede and Sint-Laureins were used. Screw top vials were filled with 10 g soil. Vials were sealed with Parafilm and preincubated at 21° C. in the dark for 5 days. After pre-incubation, vials were ventilated using a fan. Then 100 µL of a 1 mM compound solution (10 % DMSO) was added, immediately followed by the addition of 100 µL 200 mM NH4Cl. Vials were closed gastight and 5 mL synthetic air was added to the headspace using a plastic syringe, followed by the transfer of 5 mL headspace to an evacuated 3 mL exetainer. Vials were incubated at 21° C. in the dark and background NO concentration was noted. At each sampling timepoint, 5 mL synthetic air was added again to the headspace using a plastic syringe, again followed by the transfer of 5 mL headspace to an evacuated 3 mL exetainer. Vials were ventilated and closed again, and new gas samples were transferred to exetainers like before. N2O in the exetainers were measured via gas chromatography (GC-14 B (Schimadzu) equipped with Haysep Q columns (same spec) and an ECD detector, He at c.a. 20 mL min, 70° C.). The CO2 and CH4 concentration in the 3 mL exetainer vials was measured using a GC (Trace-GC, Interscience) equipped with Haysep Q columns (80-100, ⅛″ divided in 2 part 0.25 and 2.0 m connected with a 6 port valve to allow backflush of water vapor) and a FID (CH4) and TCD (CO2). Carrier gas was He c.a. 20 mL/min kept at 90° C. NO concentration was measured directly by connecting a chemiluminescence NO detector (CLD 77 AM, eco physics) directly to the headspace using a needle.
smiles,measurement,setting,value
"Cc1cn[nH]c1C [DMP, 3,4-dimethylpyrazole]",inhibition at 50 µM,"agricultural soils; 72 h, Soil 2, 3 days",68%
same,inhibition at 50 µM,"agricultural soils; 72 h, Soil 3, 3 days",52%
same,inhibition at 50 µM,"agricultural soils; 168 h, Soil 1, 7 days",88%
same,inhibition at 100 µM,"agricultural soils; 168 h, Soil 1, 7 days, 100 µM",84%
same,inhibition at 50 µM,"agricultural soils; 168 h, Soil 2, 7 days",14%
same,inhibition at 100 µM,"agricultural soils; 168 h, Soil 2, 7 days, 100 µM (Table 2)",14%
same,inhibition at 100 µM,"agricultural soils; 168 h, Soil 2, 7 days, 100 µM of each compound, 6 inhibitors alone and combined with Example 2",54%
same,inhibition at 50 µM,"agricultural soils; 168 h, Soil 3, 7 days",0%
same,inhibition at 100 µM,"agricultural soils; 168 h, Soil 3, 7 days, 100 µM",0%
same,effect on the presence (abundance) of ammonia oxidizing archaea,[1],no inhibiting effect on the presence of archaea
same,"Cumulative emission at indicated timepoint [ppb], N2O, 4 h","[2]; Moorslede soil, N2O",0 ppb
same,"Cumulative emission at indicated timepoint [ppb], N2O, 24 h","[2]; Moorslede soil, N2O",0 ppb
same,"Cumulative emission at indicated timepoint [ppb], N2O, 48 h","[2]; Moorslede soil, N2O",0 ppb
same,"Cumulative emission at indicated timepoint [ppb], N2O, 72 h","[2]; Moorslede soil, N2O",0 ppb
same,"Cumulative emission at indicated timepoint [ppb], N2O, 99 h","[2]; Moorslede soil, N2O",0 ppb
same,"Cumulative emission at indicated timepoint [ppb], NO, 4 h","[2]; Moorslede soil, NO",48 ppb
same,"Cumulative emission at indicated timepoint [ppb], NO, 24 h","[2]; Moorslede soil, NO",49 ppb
same,"Cumulative emission at indicated timepoint [ppb], NO, 48 h","[2]; Moorslede soil, NO",47 ppb
same,"Cumulative emission at indicated timepoint [ppb], NO, 72 h","[2]; Moorslede soil, NO",64 ppb
same,"Cumulative emission at indicated timepoint [ppb], NO, 99 h","[2]; Moorslede soil, NO",64 ppb
same,"Cumulative emission at indicated timepoint [ppb], N2O, 4 h","[2]; Sint-Laureins soil, N2O",0 ppb
same,"Cumulative emission at indicated timepoint [ppb], N2O, 24 h","[2]; Sint-Laureins soil, N2O",0 ppb
same,"Cumulative emission at indicated timepoint [ppb], N2O, 48 h","[2]; Sint-Laureins soil, N2O",0 ppb
same,"Cumulative emission at indicated timepoint [ppb], N2O, 72 h","[2]; Sint-Laureins soil, N2O",0 ppb
same,"Cumulative emission at indicated timepoint [ppb], N2O, 99 h","[2]; Sint-Laureins soil, N2O",0 ppb
same,"Cumulative emission at 215 h [ppb], N2O","[2]; Sint-Laureins soil, N2O, 215 h",47 ppb
same,"Cumulative emission at indicated timepoint [ppb], NO, 4 h","[2]; Sint-Laureins soil, NO",26 ppb
same,"Cumulative emission at indicated timepoint [ppb], NO, 24 h","[2]; Sint-Laureins soil, NO",59 ppb
same,"Cumulative emission at indicated timepoint [ppb], NO, 48 h","[2]; Sint-Laureins soil, NO",98 ppb
same,"Cumulative emission at indicated timepoint [ppb], NO, 72 h","[2]; Sint-Laureins soil, NO",162 ppb
same,"Cumulative emission at indicated timepoint [ppb], NO, 99 h","[2]; Sint-Laureins soil, NO",187 ppb
same,"Cumulative emission at 215 h [ppb], NO","[2]; Sint-Laureins soil, NO, 215 h",243 ppb
